{"source": "patent US20090104119A1", "about": "“Dendrimer Based Compositions And Methods Of Using The Same” (priority 2004, published 2009)", "key": {"KB cells [1]": {"system": "KB cells", "assay": "Binding and internalization of dendrimers by confocal microscopy", "format": "cell-based, human", "details": "250 nM, 24 hours, compared to control conjugates", "procedure": "Flow Cytometry and Confocal Microscopy. The standard fluorescence of the dendrimer solutions was quantified using a Beckman spectrofluorimeter. For flow cytometric analysis of the uptake of the targeted polymer, cells were trypsinized and suspended in PBS containing 0.1% bovine serum albumin (PBSB) and analyzed using a Becton Dickinson FACScan analyzer. The FL1-fluorescence of 10,000 cells was measured and the mean fluorescence of gated viable cells was quantified. Confocal microscopic analysis was performed in cells plated on a glass cover-slip, using a Carl Ziess confocal microscope. Fluorescence and differential interference contrast (DIC) images were collected simultaneously using an argon laser, using the appropriate filters for FITC.\nThe effect of free FA on the uptake of the dendrimers was tested in KB cells that express both high and low FAR. The binding of the conjugates to the low FAR-expressing KB cells was 30% of that of the high FAR-expressing cells for both the G5-FITC-FA and G5-FITC-FA-MTX (See, for e.g., FIG. 19, left panel). […] The binding and internalization of the dendrimers to KB cells was assessed by confocal microscopy. KB cells were incubated with 250 nM of the indicated dendrimers for 24 hours and confocal images were taken. Conjugates containing the targeting molecule FA internalized into KB cells within 24 h (See, e.g., FIG. 20)."}, "KB cells [2]": {"system": "KB cells", "assay": "Inhibition of cell growth by total cell protein", "procedure": "Cell culture and treatment. KB cells were maintained in folate-free medium containing 10% serum (See, e.g., Quintana et al, Pharm. Res. 19, 1310 (2002)) to provide extracellular FA similar to that found in human serum. Cells were plated in 12-well plates for uptake studies, in 24-well plates for cell growth analysis, and in 96-well plates for XTT assay. Cells were rinsed with FA-free medium containing dialyzed serum and incubated at 37° C. with dendrimer-drug conjugates for the indicated time periods and concentrations. KB cells were also maintained in RPMI medium containing 2 μM FA to obtain cells which express low FAR.\nEvaluation of dendrimer cytotoxicity. Cell growth was determined by assay of the total protein in lysates of treated cells using a bicinchoninic acid reagent (PIERCE, and by XTT assay, using a kit from Roche.\nTime course and dose dependent inhibition of cell growth. Previous studies have shown that MTX-induced cytotoxicity is detectable in vitro only if the medium is completely deprived of FA (See, e.g., Sobrero & Bertino, Int. J. Cell Cloning 4, 51 (1986)). The effect of the trifunctional dendrimers on cell growth was tested in cells incubated in a FA-deficient medium. Cells were treated with 300 nM conjugates (equivalent of 1500 nM MTX) or 1500 nM free MTX for 1-4 days, and cell proliferation was determined by estimation of cellular protein content. Cells were treated for 2 days with different concentrations of the conjugates or free MTX (the conjugate concentration is given as MTX equivalents, with 5 MTX per dendrimer molecule). KB cells which express high and low FAR were incubated with 30 nM of the dendrimers for 1 hr at 37° C., rinsed, and the fluorescence of cells was determined by flow cytometric analysis (See. e.g., FIG. 21, left panel).\nKB cells were treated with 150 or 500 nM MTX in the presence or absence of equimolar concentrations of free FA for 24 h. […] The cells were rinsed to remove the drugs and incubated with fresh medium for an additional 6 d, and total cell protein was determined."}, "s.c. human KB xenografts": {"system": "s.c. human KB xenografts", "assay": "Targeted drug delivery, tumor growth and survival in SCID mice with KB xenografts", "format": "in vivo, SCID CB-17 mice", "procedure": "Recipient animal and tumor model.\n(§1) Delivery of targeted nanoparticle therapeutic. Twice weekly, SCID mice with s.c. KB xenografts, starting on day 4 after tumor implantation, received via the tail vein an injection of either targeted or nontargeted conjugate containing methotrexate, a conjugate without methotrexate, free methotrexate, or saline as a control. The compounds were delivered in a 0.2 mL volume of saline per 20 g of mouse. The single dose of methotrexate delivered each time equaled 0.33 mg/kg. The higher doses of 1.67 and 3.33 mg/kg free methotrexate were also tested. The conjugates were delivered at equimolar concentration of methotrexate calculated based on the number of methotrexate molecules present in a nanoparticle. The conjugate without methotrexate was delivered at equimolar concentration of dendrimer. In the initial trial, six groups of mice with five mice in each group received up to 15 injections. In the follow-up trial, mice received up to 28 injections dependent on their survival. The body weights of the mice were monitored throughout the experiment as an indication of adverse effects of the drug. Histopathology of multiple organs was done at the termination of each trial and each time mouse had to be euthanized due to toxic effects or tumor burden. Tissues from lung, heart, liver, pancreas, spleen, kidney, and tumor were analyzed. Additionally, cells were isolated from tumors, stained with targeted fluorescein-labeled conjugate, and tested for the presence of folic acid receptors using flow cytometer.\nTargeted drug delivery to tumor cells through the folate receptor. The efficacy of different doses of conjugates was tested on SCID CB-17 mice bearing s.c. human KB xenografts and was compared with equivalent and higher doses of free methotrexate. Mice were maintained on the folic acid-deficient diet for 3 weeks before injection of the KB tumor cells to achieve circulating levels of folic acid that approach those in human serum and to prevent down-regulation of folate receptors on tumor xenografts (See, Mathias et al., J Nucl Med 29, 1579 (1998)). Six groups of SCID mice with five mice in each group were injected s.c. on one flank with 5×10^6 KB cells in 0.2 mL PBS suspension. The highest total dose of G5-FI-FA-MTX therapeutic used equals 55.0 mg/kg and is equivalent to a 5.0 mg/kg total cumulative dose of free methotrexate (FIG. 29). The therapeutic dose of the conjugate was compared with three cumulative doses of free methotrexate equivalent to 33.3, 21.7, and 5.0 mg/kg accumulated in 10 to 15 injections based on mouse survival. Saline and the conjugate without methotrexate (G5-FI-FA) were used as controls."}, "[3]": {"assay": "Toxicity of dendrimer conjugates and free methotrexate in mice (body weight, histopathology)", "format": "in vivo", "details": "occasional periportal lymphocytes, single-cell necrosis", "procedure": "as §1\nToxicity of dendrimer conjugates. […] No gross toxicity, either acutely or chronically up to 99 days, was observed regardless of whether the dendrimer conjugate contained methotrexate. The weight was monitored throughout the experiment and no loss of weight was observed; in fact, the animals gained weight. At each time point, a gross examination and histopathology of the liver, spleen, kidney, lung, and heart were done. No morphologic abnormalities were observed on the histopathology examination.\nThe remaining experimental groups had very uniform body weight fluctuations nonindicative of toxicity when compared with control groups with saline or conjugate without methotrexate."}}}
{"substance": "G5-(Ac)82-(FITC)5-(FA)5-MTX5 [G5-FITC-FA-MTX]", "values": [{"measurement": "cell morphology indicating cytotoxicity", "setting": "KB cells [1]", "value": "less adherent and rounded up"}, {"measurement": "cytotoxicity compared with equimolar combinations of free FA and MTX", "setting": "KB cells [2]; 30 and 100 nM conjugate (150 and 500 nM MTX), 24 h then 6 d", "value": "similar"}, {"measurement": "inhibition of cell growth (FIGS. 21 and 22)", "setting": "KB cells [2]; FA-deficient medium, 1-4 days, different concentrations", "value": "inhibited cell growth in a time- and dose-dependent fashion"}, {"measurement": "effect on tumor growth", "setting": "s.c. human KB xenografts; first trial, up to 15 injections, cumulative 5.0 mg/kg methotrexate equivalents or equimolar dendrimer", "value": "as equally effective as the second highest dose of free methotrexate"}, {"measurement": "survivors at the termination of the trial", "setting": "s.c. human KB xenografts; second 99-day trial", "value": "two (of eight)"}, {"measurement": "tumor growth versus G5-FI-MTX, free methotrexate or saline", "setting": "s.c. human KB xenografts; second 99-day trial, P<0.05", "value": "slower growth of tumors"}, {"measurement": "liver slides versus saline controls", "setting": "[3]", "value": "did not differ from that of control animals injected with saline"}]}
